Experimental data as given in the supplement of paper PMC10307832.

Assays:
Experiment in all cases: relative viability (nuclei count vs DMSO), 5 days (fraction); higher = more cells survive
[1] = compound: CC1=C(C(=NN1)C)CC2=C(C3=C(S2)N(C(=O)N(C3=O)C)CC(C)C)C(=O)N4C[C@@H](CO4)O + Cc1cc(Nc2cc(N3CCN(C)CC3)nc(Sc3ccc(NC(=O)C4CC4)cc3)n2)n[nH]1 [Tozasertib] (partner 0.1 µM)
Procedure, shortened: (§1)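 Lung cancer cell lines in 1536-well plates got either a single drug or a fixed anchor-drug dose together with five library-drug doses (not always all listed) in √10 steps, by pin tool, on the day after seeding. Nuclei were counted after 5 days, and relative viability is the treated-to-vehicle ratio of nuclei counts. Values are medians of duplicate plates.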

[2] = compound: CC1=C(C(=NN1)C)CC2=C(C3=C(S2)N(C(=O)N(C3=O)C)CC(C)C)C(=O)N4C[C@@H](CO4)O + O=C(c1cc(Cc2n[nH]c(=O)c3ccccc23)ccc1F)N1CCN(C(=O)C2CC2)CC1 [Olaparib] (partner 8 µM)
Procedure, shortened: as §1

[3] = compound: CC1=C(C(=NN1)C)CC2=C(C3=C(S2)N(C(=O)N(C3=O)C)CC(C)C)C(=O)N4C[C@@H](CO4)O + CS(=O)(=O)CCNCc1ccc(-c2ccc3ncnc(Nc4ccc(OCc5cccc(F)c5)c(Cl)c4)c3c2)o1 [Lapatinib] (partner 2 µM)
Procedure, shortened: as §1

[4] = compound: CC1=C(C(=NN1)C)CC2=C(C3=C(S2)N(C(=O)N(C3=O)C)CC(C)C)C(=O)N4C[C@@H](CO4)O + CC(C)C[C@H](NC(=O)[C@H](Cc1ccccc1)NC(=O)c1cnccn1)B(O)O [Bortezomib] (partner 0.002 µM)
Procedure, shortened: as §1

Row | Cell Line | relative viability ([1]; first compound 0.0025 µM) | relative viability ([1]; first compound 0.007906 µM) | relative viability ([1]; first compound 0.025 µM) | relative viability ([1]; first compound 0.07906 µM) | relative viability ([1]; first compound 0.25 µM) | relative viability ([2]; first compound 0.0025 µM) | relative viability ([2]; first compound 0.007906 µM) | relative viability ([2]; first compound 0.025 µM) | relative viability ([2]; first compound 0.07906 µM) | relative viability ([2]; first compound 0.25 µM) | relative viability ([3]; first compound 0.0025 µM) | relative viability ([3]; first compound 0.007906 µM) | relative viability ([3]; first compound 0.025 µM) | relative viability ([3]; first compound 0.07906 µM) | relative viability ([3]; first compound 0.25 µM) | relative viability ([4]; first compound 0.0025 µM) | relative viability ([4]; first compound 0.007906 µM) | relative viability ([4]; first compound 0.025 µM) | relative viability ([4]; first compound 0.07906 µM) | relative viability ([4]; first compound 0.25 µM)
1 | NCI-H522 | 0.516 | 0.537 | 0.545 | 0.419 | 0.418 | 0.793 | 0.646 | 0.53 | 0.4 | 0.348 |  |  |  |  |  |  |  |  |  | 
2 | HCC-15 | 0.458 | 0.519 | 0.435 | 0.469 | 0.448 | 0.721 | 0.707 | 0.69 | 0.697 | 0.766 | 0.941 | 0.814 | 0.786 | 0.82 | 0.899 | 1 | 0.945 | 0.979 | 1.02 | 1.2
3 | A-427 | 0.189 | 0.188 | 0.215 | 0.227 | 0.237 | 0.762 | 0.769 | 0.706 | 0.729 | 0.886 | 1 | 1.09 | 0.679 | 1.02 | 1.08 | 0.945 | 1 | 1.03 | 0.975 | 0.944
4 | NCI-H2228 | 0.239 | 0.248 | 0.265 | 0.26 | 0.279 | 0.609 | 0.745 | 0.786 | 0.786 | 0.993 | 1.03 | 1.02 | 1.37 | 0.961 | 1.34 | 0.996 | 1.09 | 1.11 | 0.97 | 1.47
5 | NCI-H1734 | 0.309 | 0.248 | 0.25 | 0.234 | 0.259 | 0.663 | 0.635 | 0.576 | 0.511 | 0.53 | 1.19 | 1.11 | 1.02 | 0.986 | 0.812 | 0.946 | 0.736 | 0.893 | 0.835 | 0.747
6 | PC-14 | 0.593 | 0.549 | 0.525 | 0.614 | 0.598 | 0.295 | 0.203 | 0.239 | 0.25 | 0.368 | 0.373 | 0.413 | 0.32 | 0.32 | 0.359 | 0.841 | 0.86 | 0.896 | 0.972 | 1.03
7 | NCI-H1915 | 0.443 | 0.436 | 0.446 | 0.446 | 0.45 | 0.259 | 0.251 | 0.266 | 0.249 | 0.255 | 0.98 | 1.02 | 0.953 | 0.967 | 1.06 | 0.987 | 1.03 | 0.974 | 0.827 | 1.03
8 | NCI-H1666 | 0.599 | 0.661 | 0.592 | 0.806 | 0.633 | 0.751 | 0.742 | 0.766 | 0.769 | 0.725 | 0.72 | 0.584 | 0.734 | 0.786 | 0.669 | 0.933 | 0.874 | 0.821 | 0.778 | 0.81
9 | HCC-366 | 0.491 | 0.11 | 0.153 | 0.114 | 0.109 | 0.379 | 0.473 | 0.357 | 0.294 | 0.371 | 1.02 | 1.03 | 1.06 | 1.07 | 1.15 | 1.04 | 1.1 | 0.958 | 1.07 | 1.13
10 | SK-MES-1 | 0.904 | 0.983 | 0.872 | 1.05 | 0.908 | 0.702 | 0.756 | 0.691 | 0.82 | 0.774 | 0.474 | 0.462 | 0.445 | 0.434 | 0.454 |  |  |  |  | 
11 | SW 1573 | 0.16 | 0.171 | 0.198 | 0.284 | 0.214 | 0.462 | 0.515 | 0.521 | 0.468 | 0.492 | 1.09 | 1.02 | 1.05 | 1.04 | 1.19 | 1.09 | 1.13 | 1.1 | 1.07 | 0.893
12 | NCI-H661 | 0.344 | 0.372 | 0.354 | 0.341 | 0.353 | 0.72 | 0.738 | 0.681 | 0.782 | 0.77 | 0.523 | 0.649 | 0.464 | 0.623 | 0.493 | 1 | 1.01 | 0.692 | 0.882 | 0.635
13 | PC-3 [JPC-3] | 0.932 | 0.74 | 0.867 | 0.932 | 1.01 | 1.19 | 0.794 | 1.14 | 1.07 | 1.3 | 0.475 | 0.411 | 0.501 | 0.522 | 0.427 | 0.949 | 0.869 | 0.886 | 0.79 | 0.786
14 | NCI-H1623 | 0.463 | 0.494 | 0.467 | 0.398 | 0.49 |  |  |  |  |  |  |  |  |  |  |  |  |  |  | 
15 | Calu-6 |  |  |  |  |  | 0.532 | 0.501 | 0.557 | 0.59 | 0.603 | 1.13 | 1.06 | 0.947 | 1.04 | 1.19 | 1.05 | 1.05 | 0.904 | 1.12 | 1.09
16 | LC-2-ad | 0.53 | 0.462 | 0.494 | 0.44 | 0.426 | 0.748 | 0.659 | 0.702 | 0.658 | 0.782 | 1.01 | 0.893 | 0.993 | 0.912 | 1.14 | 1.06 | 1.05 | 1.15 | 0.999 | 1.14
17 | CAL-12T | 0.334 | 0.315 | 0.366 | 0.332 | 0.304 | 0.732 | 0.704 | 0.67 | 0.755 | 0.772 | 0.822 | 0.82 |  | 0.837 | 0.766 | 1.07 | 0.978 |  | 0.891 | 0.926
